Assay results as given in patent US8648088B2, “Ethynyl nitrogen containing heteroaryl pyrazolidin-3-one derivatives” (Hoffmann-La Roche Inc., priority 2011, dated 2014).

Legend:
[1] = target: T1, human mGlu5a receptor (Homo sapiens, UniProt P41594); test: [3H]MPEP binding competition on human mGlu5a receptor membranes; parameters: expressed in transfected cells; host or cells: EBNA cells (transient), membrane homogenates; details: [3H]MPEP (2 nM) competition, EBNA cell membranes, 1 h at 4° C.; read-out: Human mGluR5 Ki
Procedure: Examples 18, 20-22 have been tested on human mGluR5 receptor using the following method:
For binding experiments, cDNA encoding human mGlu 5a receptor was transiently transfected into EBNA cells using a procedure described by Schlaeger and Christensen [Cytotechnology 15:1-13 (1998)]. Cell membrane homogenates were stored at −80° C. until the day of assay where upon they were thawed and resuspended and polytronized in 15 mM Tris-HCl, 120 mM NaCl, 100 mM KCl, 25 mM CaCl2, 25 mM MgCl2 binding buffer at pH 7.4 to a final assay concentration of 20 μg protein/well.
Saturation isotherms were determined by addition of twelve [^3H]MPEP concentrations (0.04-100 nM) to these membranes (in a total volume of 200 μl) for 1 h at 4° C. Competition experiments were performed with a fixed concentration of [^3H]MPEP (2 nM) and IC50 values of test compounds evaluated using 11 concentrations (0.3-10,000 nM). Incubations were performed for 1 h at 4° C.
At the end of the incubation, membranes were filtered onto unifilter (96-well white microplate with bonded GF/C filter preincubated 1 h in 0.1% PEI in wash buffer, Packard BioScience, Meriden, Conn.) with a Filtermate 96 harvester (Packard BioScience) and washed 3 times with cold 50 mM Tris-HCl, pH 7.4 buffer. Nonspecific binding was measured in the presence of 10 μM MPEP. The radioactivity on the filter was counted (3 min) on a Packard Top-count microplate scintillation counter with quenching correction after addition of 45 μl of microscint 40 (Canberra Packard S.A., Zürich, Switzerland) and shaking for 20 min.
For binding experiments the Ki values of the compounds tested are given. The Ki value is defined by the following formula: Ki=IC50/[1+L/Kd] in which the IC50 values are those concentrations of the compounds tested which cause 50% inhibition of the competing radioligand ([^3H]MPEP). L is the concentration of radioligand used in the binding experiment and the Kd value of the radioligand is empirically determined for each batch of membranes prepared.

[2] = target: T1, human mGlu5a receptor; test: Intracellular Ca2+ mobilization assay (mGlu5 PAM); assay type: cell-based; parameters: expressed in transfected cells; details: for Emax: HEK293, maximal response in % of maximal stimulatory effect of saturating L-glutamate, HEK-293 human mGlu5a, read-out: Eff. (%); for EC50: HEK-293 cells stably expressing human mGlu5a, L-glutamate added at EC20, read-out: EC50 (nM) mGlu5PAM
Procedure: A monoclonal HEK-293 cell line stably transfected with a cDNA encoding for the human mGlu5a receptor was generated; for the work with mGlu5 Positive Allosteric Modulators (PAMs), a cell line with low receptor expression levels and low constitutive receptor activity was selected to allow the differentiation of agonistic versus PAM activity. Cells were cultured according to standard protocols (Freshney, 2000) in Dulbecco's Modified Eagle Medium with high glucose supplemented with 1 mM glutamine, 10% (vol/vol) heat-inactivated bovine calf serum, Penicillin/Streptomycin, 50 μg/ml hygromycin and 15 μg/ml blasticidin (all cell culture reagents and antibiotics from Invitrogen, Basel, Switzerland).
About 24 hrs before an experiment, 5×10^4 cells/well were seeded in poly-D-lysine coated, black/clear-bottomed 96-well plates. The cells were loaded with 2.5 μM Fluo-4AM in loading buffer (1×HBSS, 20 mM HEPES) for 1 hr at 37° C. and washed five times with loading buffer. The cells were transferred into a Functional Drug Screening System 7000 (Hamamatsu, Paris, France), and 11 half logarithmic serial dilutions of test compound at 37° C. were added and the cells were incubated for 10-30 min with on-line recording of fluorescence. Following this pre-incubation step, the agonist L-glutamate was added to the cells at a concentration corresponding to EC20 (typically around 80 μM) with on-line recording of fluorescence; in order to account for day-to-day variations in the responsiveness of cells, the EC20 of glutamate was determined immediately ahead of each experiment by recording of a full dose-response curve of glutamate.
Responses were measured as peak increase in fluorescence minus basal (i.e. fluorescence without addition of L-glutamate), normalized to the maximal stimulatory effect obtained with saturating concentrations of L-glutamate. Graphs were plotted with the % maximal stimulatory using XLfit, a curve fitting program that iteratively plots the data using Levenburg Marquardt algorithm. The single site competition analysis equation used was y=A+((B−A)/(1+((x/C)D))), where y is the % maximal stimulatory effect, A is the minimum y, B is the maximum y, C is the EC50, x is the log 10 of the concentration of the competing compound and D is the slope of the curve (the Hill Coefficient). From these curves the EC50 (concentration at which half maximal stimulation was achieved), the Hill coefficient as well as the maximal response in % of the maximal stimulatory effect obtained with saturating concentrations of L-glutamate were calculated.
A depression of the signal observed after addition of the EC20 concentration of L-glutamate was indicative of an inhibitory activity of the test compound.
In the table below are shown the prepared compounds 1-24 with corresponding results (EC50 in nM).

T1 sequence (P41594 21-1180 isoform P41594-2 limits assumed): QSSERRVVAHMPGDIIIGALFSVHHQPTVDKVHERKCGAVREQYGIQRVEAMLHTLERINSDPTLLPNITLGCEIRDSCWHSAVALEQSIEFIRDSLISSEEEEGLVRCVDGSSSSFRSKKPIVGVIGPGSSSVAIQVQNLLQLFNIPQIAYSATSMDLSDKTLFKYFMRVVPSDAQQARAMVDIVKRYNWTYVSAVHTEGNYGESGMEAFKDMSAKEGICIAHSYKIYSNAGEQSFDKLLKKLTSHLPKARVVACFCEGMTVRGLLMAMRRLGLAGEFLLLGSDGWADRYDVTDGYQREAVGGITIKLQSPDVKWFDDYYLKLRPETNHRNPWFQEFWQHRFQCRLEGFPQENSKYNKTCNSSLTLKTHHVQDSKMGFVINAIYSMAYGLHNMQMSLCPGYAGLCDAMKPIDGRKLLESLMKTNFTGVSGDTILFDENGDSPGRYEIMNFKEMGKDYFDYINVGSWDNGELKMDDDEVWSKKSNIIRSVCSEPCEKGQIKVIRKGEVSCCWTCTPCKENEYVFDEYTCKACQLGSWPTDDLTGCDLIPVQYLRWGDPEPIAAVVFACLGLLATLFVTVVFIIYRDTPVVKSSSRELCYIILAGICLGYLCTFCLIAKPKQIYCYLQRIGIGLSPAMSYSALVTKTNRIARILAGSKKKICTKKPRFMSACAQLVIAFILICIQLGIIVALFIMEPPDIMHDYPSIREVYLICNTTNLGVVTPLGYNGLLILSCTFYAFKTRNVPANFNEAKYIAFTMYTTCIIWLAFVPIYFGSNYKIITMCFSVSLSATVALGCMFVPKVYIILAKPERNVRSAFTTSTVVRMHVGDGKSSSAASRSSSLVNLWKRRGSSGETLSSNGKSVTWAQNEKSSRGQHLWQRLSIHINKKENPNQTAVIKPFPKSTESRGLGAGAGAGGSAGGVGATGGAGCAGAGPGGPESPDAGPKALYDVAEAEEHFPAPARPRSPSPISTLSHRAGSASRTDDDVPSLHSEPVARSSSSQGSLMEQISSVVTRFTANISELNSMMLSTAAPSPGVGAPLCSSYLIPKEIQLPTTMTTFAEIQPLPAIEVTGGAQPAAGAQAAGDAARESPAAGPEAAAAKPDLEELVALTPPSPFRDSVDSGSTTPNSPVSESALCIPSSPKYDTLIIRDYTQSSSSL

Ki [1]	Emax [2]	EC50 [2]	Compound
69.7 nM	–	–	CC1(C)CC(=O)N(c2ccc(C#Cc3cc(F)ccc3F)cn2)N1 [Example 20, 2-[5-(2,5-Difluoro-phenylethynyl)-pyridin-2-yl]-5,5-dimethyl-pyrazolidin-3-one]
–	92%	71 nM	CC1(C(F)(F)F)CC(=O)N(c2ccc(C#Cc3ccccc3)cn2)N1 (racemic) [Example 24, (RS)-5-Methyl-2-(5-phenylethynyl-pyridin-2-yl)-5-trifluoromethyl-pyrazolidin-3-one]
–	55%	90 nM	CN1N(c2ccc(C#Cc3cccc(Cl)c3)cn2)C(=O)CC1(C)C [Example 7, 2-[5-(3-Chloro-phenylethynyl)-pyridin-2-yl]-1,5,5-trimethyl-pyrazolidin-3-one]
–	73%	35 nM	O=C1CC2CCCN2N1c1ccc(C#Cc2ccccc2)cn1 (racemic) [Example 10, (RS)-1-(5-Phenylethynyl-pyridin-2-yl)-tetrahydro-pyrrolo[1,2-b]pyrazol-2-one]
–	39%	46 nM	CC1(C)CC(=O)N(c2ncc(C#Cc3ccccc3)cn2)N1 [Example 9, 5,5-Dimethyl-2-(5-phenylethynyl-pyrimidin-2-yl)-pyrazolidin-3-one]
–	59%	22 nM	O=C1CC2CCCN2N1c1ncc(C#Cc2cccc(F)c2)cn1 (racemic) [Example 12, (RS)-1-[5-(3-Fluoro-phenylethynyl)-pyrimidin-2-yl]-tetrahydro-pyrrolo[1,2-b]pyrazol-2-one]
–	58%	41 nM	O=C1CC2CCCN2N1c1ncc(C#Cc2ccc(F)cc2)cn1 (racemic) [Example 13, (RS)-1-[5-(4-Fluoro-phenylethynyl)-pyrimidin-2-yl]-tetrahydro-pyrrolo[1,2-b]pyrazol-2-one]
–	61%	34 nM	CN1N(c2ncc(C#Cc3cccc(F)c3)cn2)C(=O)CC1(C)C [Example 15, 2-[5-(3-Fluoro-phenylethynyl)-pyrimidin-2-yl]-1,5,5-trimethyl-pyrazolidin-3-one]
–	31%	13 nM	CC1(C)CC(=O)N(c2ccc(C#Cc3cccc(F)c3)cn2)N1 [Example 5, 2-[5-(3-Fluoro-phenylethynyl)-pyridin-2-yl]-5,5-dimethyl-pyrazolidin-3-one]
–	46%	106 nM	CCN1C(C(C)C)CC(=O)N1c1ccc(C#Cc2ccccc2)cn1 (racemic) [Example 23, (RS)-1-Ethyl-5-isopropyl-2-(5-phenylethynyl-pyridin-2-yl)-pyrazolidin-3-one]
–	66%	33 nM	CN1N(c2ncc(C#Cc3ccccc3)cn2)C(=O)CC1(C)C [Example 14, 1,5,5-Trimethyl-2-(5-phenylethynyl-pyrimidin-2-yl)-pyrazolidin-3-one]
–	60%	7 nM	CC1(C)CC(=O)N(c2ccc(C#Cc3ccccc3)cn2)N1 [Example 1, 5,5-Dimethyl-2-(5-phenylethynyl-pyridin-2-yl)-pyrazolidin-3-one]
–	69%	56 nM	CN1N(c2ncc(C#Cc3ccc(F)cc3)cn2)C(=O)CC1(C)C [Example 16, 2-[5-(4-Fluoro-phenylethynyl)-pyrimidin-2-yl]-1,5,5-trimethyl-pyrazolidin-3-one]
–	72%	72 nM	Cc1cccc(C#Cc2ccc(N3C(=O)CC(C)(C)N3C)nc2)c1 [Example 4, 1,5,5-Trimethyl-2-(5-m-tolylethynyl-pyridin-2-yl)-pyrazolidin-3-one]
103 nM	–	–	CN1N(c2ccc(C#Cc3ccnc(Cl)c3)cn2)C(=O)CC1(C)C [Example 18, 2-[5-(2-Chloro-pyridin-4-ylethynyl)-pyridin-2-yl]-1,5,5-trimethyl-pyrazolidin-3-one]
53.5 nM	–	–	CCN1N(c2ccc(C#Cc3ccccc3)cn2)C(=O)CC1(C)C [Example 21, 1-Ethyl-5,5-dimethyl-2-(5-phenylethynyl-pyridin-2-yl)-pyrazolidin-3-one]
–	55%	60 nM	O=C1CC2CCCN2N1c1ncc(C#Cc2ccccc2)cn1 (racemic) [Example 11, (RS)-1-(5-Phenylethynyl-pyrimidin-2-yl)-tetrahydro-pyrrolo[1,2-b]pyrazol-2-one]
–	96%	30 nM	CN1N(c2ccc(C#Cc3ccccc3)cn2)C(=O)CC1(C)C [Example 3, 1,5,5-Trimethyl-2-(5-phenylethynyl-pyridin-2-yl)-pyrazolidin-3-one]
–	47%	35 nM	CN1N(c2ncc(C#Cc3cc(F)ccc3F)cn2)C(=O)CC1(C)C [Example 17, 2-[5-(2,5-Difluoro-phenylethynyl)-pyrimidin-2-yl]-1,5,5-trimethyl-pyrazolidin-3-one]
–	38%	13 nM	CC1(C)CC(=O)N(c2ccc(C#Cc3ccc(F)cc3)cn2)N1 [Example 8, 2-[5-(4-Fluoro-phenylethynyl)-pyridin-2-yl]-5,5-dimethyl-pyrazolidin-3-one]
–	86%	86 nM	CC1(C)CC(=O)N(c2ccc(C#Cc3cc(F)ccc3F)nn2)N1 [Example 19, 2-[6-(2,5-Difluoro-phenylethynyl)-pyridazin-3-yl]-5,5-dimethyl-pyrazolidin-3-one]
–	109%	36 nM	CN1N(c2ccc(C#Cc3cccc(F)c3)cn2)C(=O)CC1(C)C [Example 6, 2-[5-(3-Fluoro-phenylethynyl)-pyridin-2-yl]-1,5,5-trimethyl-pyrazolidin-3-one]
–	73%	24 nM	CC(C)C1CC(=O)N(c2ccc(C#Cc3ccccc3)cn2)N1 (racemic) [Example 2, (RS)-5-Isopropyl-2-(5-phenylethynyl-pyridin-2-yl)-pyrazolidin-3-one]
